Test [1] addresses T1, APC (Homo sapiens, UniProt P04070). In words: amidolytic activity of APC towards S-2366. The test is classed as biochemical. Also noted: Protein C consists of a 155 amino acid residue light chain and a 262 amino acid residue heavy chain; from tissue; host or cells: human plasma factor IX concentrate. The following applies: for Change in A405 /5 minutes: 10 nM APC, 250 μM PC311-325, 500 μM PC142-155, 30 minutes at 37° C., S-2366. The protocol:
The amidolytic activity of APC toward the peptide substrate S-2366 was measured in the presence of various PC synthetic peptides derived from both the heavy and light chain, prepared in Example 1. For the assay, 100 μl of 10 nM APC, prepared in Example 2c2), were admixed with separate aliquots of 250 μM of PC311-325 and 500 μM Df PC142-155 prepared in TBS-BSA at pH 7.4 containing 0.02% NaN3 and 2 mM CaCl2 to form APC-peptide admixtures. After maintenance of the admixtures for 30 minutes at 37° C., 50 μl of 2.4 mM S-2366 in the same buffer were admixed to initiate the amidolytic reaction. The hydrolysis of the substrate was monitored by the change in absorbance at 405 nm at 37° C. over time using an EL312 Microplate Bio-Kinetics Reader (BIO-TEK Instruments, Inc. Vermont.). All data are mean values of duplicate measurements.
The amidolytic activity of APC toward the peptide substrate S-2366 was measured in the presence of anti-PC317-331 antibody. For the assay, 100 μl of 15 nM APC, prepared in Example 2c2), were admixed with separate aliquots of anti-PC317-331 antibody ranging in concentration from […] prepared in TBS-BSA at pH 7.4 containing 0.02% NaN3 and 2 mM CaCl2 to form APC-anti-PC317-331 antibody immunoreaction admixtures. After maintenance of the admixtures for 30 minutes at 37° C. to allow formation of immunoreaction products, 50 μl of 2.4 mM S-2366 in the same buffer was admixed to initiate the amidolytic reaction. The hydrolysis of the substrate was monitored by the change in absorbance at 405 nm over time using an EL312 Microplate Bio-Kinetics Reader (BIO-TEK Instruments, Inc. Vermont.).
Target sequence in this assay (P04070 43-197 limits assumed): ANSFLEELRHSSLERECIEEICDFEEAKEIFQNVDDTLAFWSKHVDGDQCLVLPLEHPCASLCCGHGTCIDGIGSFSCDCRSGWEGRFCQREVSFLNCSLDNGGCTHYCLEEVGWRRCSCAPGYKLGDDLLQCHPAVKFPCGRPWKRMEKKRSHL
Target sequence in this assay (P04070 212-450 limits assumed): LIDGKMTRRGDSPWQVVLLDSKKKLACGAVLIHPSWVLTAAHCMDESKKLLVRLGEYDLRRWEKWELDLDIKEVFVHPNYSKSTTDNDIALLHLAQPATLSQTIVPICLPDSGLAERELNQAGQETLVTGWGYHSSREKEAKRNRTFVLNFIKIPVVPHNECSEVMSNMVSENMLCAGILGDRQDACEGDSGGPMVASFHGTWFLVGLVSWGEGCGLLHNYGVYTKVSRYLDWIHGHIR

The target in test [2] is T1, APC. The experiment in a line: APC-catalyzed inactivation of Factor Va, residual Va by prothrombinase assay. It is filed as biochemical. Also noted: Protein C consists of a 155 amino acid residue light chain and a 262 amino acid residue heavy chain; from tissue; Factor Va a gift (Tans and Rosing, Univ. of Limburg). The protocol:
The APC catalyzed inactivation of Factor Va assays were performed in 96-well flat bottom ELISA plates (Stockwell Scientific, Walnut, Calif.). The reactions were performed either in the presence or absence of phospholipid vesicles to determine if either PC311-325 or PC142-155 inhibited APC anticoagulant activity by inhibiting the binding of APC or its substrate to phospholipids or if it was independent of phospholipid surfaces. This determination was relevant in light of reports that the assembly of APC with its substrates Va and VIIIa on the phospholipid surface appeared to be mediated mainly by the Gla-domain of APC in the presence of calcium which was crucial for exerting significant anticoagulant activity. [Sugo et al., J. Biol. Chem., 260:10453-10457 (1985); […] et al., J. Biol. Chem., 261:9684-9693 (1986); Solymoss et al., J. Biol. Chem., 263:14884-14890 (1988)]. For the preparation of phospholipid residues for use in the assay bovine brain phosphatidylserine in chloroform […]/methanol (CH3 OH) and soybean phosphatidylcholine (Type III-S, CCl4 solution) were purchased from Sigma and were reported to be at least 98% homogeneous (supplier's estimates). To prepare vesicles, phosphatidylserine was admixed with phosphatidylcholine (20% phosphatidylserine/80% phosphatidylcholine; M/M) and the organic solvent evaporated under a stream of nitrogen. The resultant phospholipid admixture was resuspended in 0.05 M TBS-Az at pH 7.4 as a 1.25 mM solution by vortexing. Single bilayer vesicles were obtained during sonication by direct probe (Heat-Systems-Ultrasonics, Inc., […] Sonicator) for 6×30 second bursts at 30 W in 2 minute intervals at 4° C. The reaction buffer consisted of 0.05 M Tris-HCl, at pH 7.4 containing 0.1 M NaCl, 0.02% NaN3, 0.5% BSA and 2.5 mM CaCl2. […] M/M) either at 22° C. (in the presence of phospholipids) or at 37° C. (in the absence of phospholipids). […] The monoclonal antibody C3 which specifically recognizes the light-chain of PC as well as APC was prepared as in Example 2. Factor Va (a gift from Drs. Tans and Rosing, Univ. of Limburg, the Netherlands) was first admixed with or without PC311-325 or PC142-155 and maintained for 20 minutes either at 22° C. or at 37° C. prior to admixture with APC. […] Factor Va was determined via its cofactor activity in the activation of prothrombin by Factor Xa. […] The molar concentration of Factor Xa was determined by active site titration as described by Chase et al., Biochem. Biophys. […]
Target sequence in this assay (P12259 29-737 partner limits assumed): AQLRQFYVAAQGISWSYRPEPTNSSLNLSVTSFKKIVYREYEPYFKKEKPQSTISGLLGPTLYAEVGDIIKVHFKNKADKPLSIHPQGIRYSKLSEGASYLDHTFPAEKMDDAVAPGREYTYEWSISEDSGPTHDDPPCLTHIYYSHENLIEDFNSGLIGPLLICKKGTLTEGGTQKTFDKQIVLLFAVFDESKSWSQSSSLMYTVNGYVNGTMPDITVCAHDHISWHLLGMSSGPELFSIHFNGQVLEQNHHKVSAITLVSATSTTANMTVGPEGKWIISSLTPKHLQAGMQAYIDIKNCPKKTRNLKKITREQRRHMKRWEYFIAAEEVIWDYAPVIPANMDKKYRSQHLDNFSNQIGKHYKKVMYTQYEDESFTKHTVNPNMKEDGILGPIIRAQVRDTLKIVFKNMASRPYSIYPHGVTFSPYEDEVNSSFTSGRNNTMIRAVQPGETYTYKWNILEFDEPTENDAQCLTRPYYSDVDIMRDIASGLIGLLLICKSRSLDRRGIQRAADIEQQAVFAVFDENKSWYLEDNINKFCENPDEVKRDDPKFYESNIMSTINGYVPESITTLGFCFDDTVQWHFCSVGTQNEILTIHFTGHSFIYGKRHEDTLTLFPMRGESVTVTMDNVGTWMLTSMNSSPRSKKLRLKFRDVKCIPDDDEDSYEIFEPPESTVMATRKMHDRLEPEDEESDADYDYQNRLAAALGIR
Target sequence in this assay (P12259 1574-2224 partner limits assumed): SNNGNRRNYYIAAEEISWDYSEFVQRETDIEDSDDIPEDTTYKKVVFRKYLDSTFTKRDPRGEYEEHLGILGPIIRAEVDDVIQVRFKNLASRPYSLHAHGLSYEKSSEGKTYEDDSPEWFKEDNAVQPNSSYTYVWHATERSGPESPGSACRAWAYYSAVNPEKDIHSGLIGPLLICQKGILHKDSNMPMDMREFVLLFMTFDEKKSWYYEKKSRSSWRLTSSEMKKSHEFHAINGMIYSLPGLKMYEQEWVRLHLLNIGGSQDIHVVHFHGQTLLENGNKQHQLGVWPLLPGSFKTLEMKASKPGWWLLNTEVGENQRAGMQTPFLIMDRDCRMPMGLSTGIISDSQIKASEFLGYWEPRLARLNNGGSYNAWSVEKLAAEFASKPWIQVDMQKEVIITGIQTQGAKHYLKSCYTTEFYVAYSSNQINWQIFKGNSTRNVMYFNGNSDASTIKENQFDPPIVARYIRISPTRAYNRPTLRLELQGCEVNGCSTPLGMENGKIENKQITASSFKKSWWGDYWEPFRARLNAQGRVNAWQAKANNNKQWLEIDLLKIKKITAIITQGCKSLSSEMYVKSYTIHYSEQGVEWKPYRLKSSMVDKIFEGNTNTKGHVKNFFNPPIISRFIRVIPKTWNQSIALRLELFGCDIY
Target sequence in this assay (P04070 43-197 limits assumed): as the sequence (P04070 43-197 limits assumed) above
Target sequence in this assay (P04070 212-450 limits assumed): as the sequence (P04070 212-450 limits assumed) above

pIC50: −log10 of the molar value. No end group written: not given here.

By inhibition is commonly meant how much of the control response was suppressed.

Regarding “MHKLREGKWRPKSR [Scrambled peptide, reference compound]”, the “Change in A405 /5 minutes” value in the test with APC [1] came out at 0.364.

In turn, `CSCC[C@H](NC(=O)[C@H](CCCNC(=N)N)NC(=O)[C@H](CCCCN)NC(=O)[C@H](Cc1c[nH]c2ccccc12)NC(=O)[C@@H]1CCCN1C(=O)[C@H](CCCNC(=N)N)NC(=O)CN)C(=O)N[C@@H](CCC(=O)O)C(=O)N[C@@H](CCCCN)C(=O)N[C@@H](CCCCN)C(=O)N[C@@H](CCCNC(=N)N)C(=O)N[C@@H](CO)C(=O)N[C@@H](Cc1c[nH]cn1)C(=O)N[C@@H](CC(C)C)C(=O)N[C@@H](CS)C(N)=O` [PC142-155, Gly-Arg-Pro-Trp-Lys-Arg-Met-Glu-Lys-Lys-Arg-Ser-His-Leu] returned an inhibition at 500 µM against APC [2] (absence of phospholipids, 500 μM PC142-155) of 87%.

As for “KRNRTFVLNFIKIPV-NH2 [PC311-325, Lys-Arg-Asn-Arg-Thr-Phe-Val-Leu-Asn-Phe-Ile-Lys-Ile-Pro-Val]”, the “rate of Factor Va inactivation (%Vi /min)” value at APC [2] (absence of phospholipids, 5 nM APC, 40 nM Va, 50 μM PC311-325) is 0.5 % Vi /min. Also, the pIC50 on APC [2] (presence of phospholipid vesicles, read-out: half-maximal inhibition of the APC-catalyzed inactivation of Factor Va) was 5.22. Moreover, at APC [2] (read-out: inhibition of APC activity), the inhibition at 50 µM stood at 87%. Moreover, the “Change in A405 /5 minutes” value at APC [1] is 0.342. Also, the “effect on APC amidolytic activity towards S-2366” value at APC [1] (up to 250 μM PC311-325 or 500 μM PC142-155, 30 min at 37° C.) is on record as “no significant effect”.
